Results taken from publication PMC5614969, “High-Affinity Functional Fluorescent Ligands for Human β-Adrenoceptors” (Scientific Reports, 2017).

Legend:
β2AR [1] = molecular target: T1, β2AR (Homo sapiens, UniProt P07550); assay: cAMP FRET sensor (TEpacVV) agonist assay in HEK 293 cells; format: cell-based; details: for intracellular cAMP level: addition of probe to the cells, 60 min at room temperature (Suppl. Fig. 13)
Protocol: Upon cAMP binding, the sensor undergoes a conformational change resulting in a decrease of the FRET efficiency between two fluorescent proteins: mTurquoise - a version of cyan fluorescent protein (CFP) as the donor, and yellow fluorescent protein (YFP) as the acceptor (Fig. 3a).
The intracellular cyclic adenosine monophosphate (cAMP) levels were determined with HEK 293 cells expressing a 3′,5′-cAMP FRET sensor. The cells were a generous gift from Ruud Hovius from École poly-technique fédérale de Lausanne (EPFL). The cAMP production induces a conformational switch in ^TEpac^VV and causes a decrease in FRET efficiency, i.e. a decreased energy transfer between the two fluorescent proteins (donor mTurquoise and acceptor YFP)[32].
The culture was maintained by subculturing the cells every 4 to 5 days using the standard trypsinization procedure. Before measurements, cells were trypsinated and transferred in a 96-well glass bottom plate (MatTek Corporation; Cat. No. P96GC-1.5–5-F) to contain 10,000–30,000 cells per well in 200 µL of DMEM media. After 24 h incubation in 5% CO2 at 37 °C, the cells were washed with HBSS pH 7.2 (200 µL), and the wells were filled with 200 µL HBSS. The DMSO stock solutions of the fluorescent probes were diluted 5,000 times in HBSS and used in experiments. […] The fluorescent ligand solutions of different concentrations in HBSS were premixed with the isoprenaline solution. 50 µL of a final solution was added to each well and the measurement was started upon addition and continued for 1 h in 10 min intervals between the readouts (inclusive).
The ligands were added using an automated pipette to initiate the sensor response. FRET readout from the cAMP sensor was performed on a multiwell plate reader Spark 20 M (Tecan) at room temperature (25 °C). Fluorescence readout amplitudes were calculated from time series for different ligand concentrations, following background subtraction (media only). […] Data were derived from 3 independent experiments and each independent experiment was performed in triplicate.
Sensor response R(CFP/FRET) was calculated using (1):1 R(CFP/FRET)=(FimTurquoise−FbkgmTurquoise)/(FiFRET−FbkgFRET) where F i ^mTurquoise – mTurquoise fluorescence intensity in the wells with cells; F bkg ^mTurquoise - mTurquoise fluorescence intensity in the control wells without cells; F i ^FRET – FRET signal intensity in the wells with cells; F bkg ^FRET – FRET signal intensity in the control wells without cells. For every result, R(CFP/FRET) ratio was normalized to the R(CFP/FRET) response of DMSO sample.

β2AR [2] = molecular target: T1, β2AR; assay: TR-FRET receptor-ligand saturation binding assay, Tag-lite β2AR cells; details: for binding selectivity β2AR over β1AR: TR-FRET assay, ratio of Kd app; for Kd: β2AR, 2 h at room temperature, read-out: Kd app
Protocol: To confirm whether the affinity of carazolol-KK114 (24) is sufficient for the intended imaging experiments and to evaluate its β2/β1AR selectivity, we performed a TR-FRET assay in Tag-lite β1AR or β2AR transfected cells (Cisbio) labeled with Tb^3+ cryptate (Lumi4-Tb) (Fig. 3c)[39]. […] (Fig. 3d, Supplementary Fig. 5b). The high affinities of both fluorescent ligands enabled the imaging experiments.
K d determination was performed on Tag-lite β1AR (Cisbio, Cat. No. C1TT1BETA1) or β2AR (Cisbio, Cat. No. C1TT1BETA2) Tb^3+ cryptate labeled transfected cells. The β1AR or β2AR cells labeled with SNAP-Terbium interact with the specific ligand labeled with the corresponding fluorophore. The fraction of bound ligand is proportional to the FRET signal. Donor Tb^3+ cryptate: exc. 340 nm, em. 490 nm, 546 nm, 583 nm, 620 nm; acceptor KK114: exc. 630 nm, em. 655 nm. The cells were thawed and suspended in 4.5 ml Tag-lite buffer (Cisbio, Cat. No. LABMED) according to the product information and transferred to half-area white polystyrene 96 well plates (Sigma, Cat. No. CLS3693) by 20 µl per well. 20 µl of a fluorescent probe or control compound in Tag-lite buffer was added to each well and incubated for 2 h at room temperature (20 °C) before readout. FRET readout was performed on a multiwell plate reader Spark 20 M (Tecan) at room temperature. […] All probe and control compound dilutions were prepared in DMSO, so that the final DMSO concentration was kept constant throughout the titration series. The ratio of the acceptor and donor emission signals was calculated for each individual well using equation (3):3 Ratio=Signal655nm−BackgroundSignal/Signal620nm−BackgroundSignal
Luminescence background signal was measured in wells containing 40 µl of Tag-lite buffer only. Specific binding was calculated by subtracting nonspecific binding ratio from total binding ratio at each fluorescent ligand concentration. K d ^app is determined by fitting data using GraphPad Prism 6 to one site specific binding with Hill slope equation (4):4 Specificsingalratio=A∗[probe]^h/(Kdapp)^h+[probe]^h
A is amplitude of specific signal ratio, [probe] - probe concentration, K d ^app - the ligand concentration needed to achieve a half-maximum binding at equilibrium, h - the Hill slope.

β2AR [3] = molecular target: T1, β2AR; assay: Staining and competitive binding in CAPAN-1 cells at endogenous β2AR expression; format: cell-based; details: for receptor staining: 100 nM probe; for competitive binding with excess unlabeled ligand: 100 nM probe (5 nM ab118171) with 10 µM BI-167107 or carazolol
Protocol: To study the selectivity of β2AR staining at the endogenous expression levels, which are much lower compared to those in transiently β2AR expressing U2OS cells, we tested the performance of BI-167107 probes in pancreatic CAPAN-1 cells (Fig. 7c–f). […] Low density of β2AR in the plasma membrane of CAPAN-1 cells allowed us to measure of the lateral resolution in the STED images. When the cells were incubated with 100 nM BI-PEG-KK114 (18) ligand, we observed two-fold improvement in the resolution resulting in apparent structures of ~100 nm (Fig. 7d; Supplementary Table 4).
For staining of CAPAN-1 cells, fluorescent probes or mixtures of a probe and a competitor were incubated in McCoy’s 5a Medium Modified supplemented with 10% fetal bovine serum (FBS) for 30–40 min at room temperature. Afterwards, the samples were washed two times with HBSS, and cells were imaged in DMEM (Thermo Fisher Scientific) supplemented with GlutaMAX-1 (Thermo Fisher Scientific) and 10% fetal bovine serum (FBS). Imaging performed on Leica SP8 (Leica Microsystems) or Abberior STED (Abberior Instruments GmbH) microscopes.

[4] = pH dependence of ligand fluorescence; format: physicochemical
Protocol: pH dependence of βAR ligands fluorescence were recorded on a multiwell plate reader Spark 20 M (Tecan) in 96-well glass bottom plates (MatTek Corporation; Cat. No. PBK96G-1.5-5-F) in PBS solutions (pH 4.7–8.0) at room temperature (25 °C). The 100x stock solutions of ligands were prepared in DMSO.

T1 sequence (P07550 whole entry): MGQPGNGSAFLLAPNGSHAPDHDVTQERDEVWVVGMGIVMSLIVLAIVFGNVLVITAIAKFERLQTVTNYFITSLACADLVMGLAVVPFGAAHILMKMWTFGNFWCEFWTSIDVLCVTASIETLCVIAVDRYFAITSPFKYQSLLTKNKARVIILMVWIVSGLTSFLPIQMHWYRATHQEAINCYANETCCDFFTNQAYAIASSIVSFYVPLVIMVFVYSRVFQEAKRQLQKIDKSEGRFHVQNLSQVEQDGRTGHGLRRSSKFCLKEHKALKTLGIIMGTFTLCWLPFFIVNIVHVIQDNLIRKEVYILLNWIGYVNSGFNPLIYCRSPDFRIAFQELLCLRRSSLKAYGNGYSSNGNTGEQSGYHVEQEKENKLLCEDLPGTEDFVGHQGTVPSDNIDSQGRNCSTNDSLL

SMILES: Cc1c(CCC(=O)NCCOCCOCCNC(=O)CCN(C)C(=O)c2c(F)c(F)c(F)c(F)c2C2=c3cc4c5c(c3Oc3c2cc2c6c3CCCN6C(C)(C)C=C2CS(=O)(=O)O)CCC[N+]=5C(C)(C)C=C4CS(=O)(=O)[O-])cccc1CC(C)(C)NCC(O)c1ccc(O)c2c1OCC(=O)N2 (stereo not shown) [BI-PEG-KK114 (18)]
- EC50 (β2AR [1]; HEK 293 expressing 3′,5′-cAMP FRET sensor, 30 min incubation, room temperature, read-out: EC50 (mean ± SD)): 5.7 ± 2.2 nM
- intracellular cAMP level (β2AR [1]): induces intracellular cAMP level increase
- binding selectivity β2AR over β1AR (β2AR [2]): nine-fold
- Kd (β2AR [2]): 7.2 ± 0.6 nM
- receptor staining (β2AR [3]): plasma membrane localized receptor staining
- competitive binding with excess unlabeled ligand (β2AR [3]): no background fluorescence
- emission intensity decrease ([4]; at pH 8.0): 30%

SMILES: CN(CCC(=O)NCCOCCOCCOCCOCCC(=O)NCCC(C)(C)NCC(O)COc1cccc2[nH]c3ccccc3c12)C(=O)c1c(F)c(F)c(F)c(F)c1C1=c2cc3c4c(c2Oc2c1cc1c5c2CCCN5C(C)(C)C=C1CS(=O)(=O)O)CCC[N+]=4C(C)(C)C=C3CS(=O)(=O)[O-] (stereo not shown) [Carazolol-KK114 (24)]
- intracellular cAMP level (β2AR [1]): did not change
- binding selectivity β2AR over β1AR (β2AR [2]): three-fold
- Kd (β2AR [2]): 14.7 ± 0.9 nM
- receptor staining (β2AR [3]): plasma membrane localized receptor staining
- competitive binding with excess unlabeled ligand (β2AR [3]): efficiently displaced
- fluorescence intensity retained relative to maximal ([4]; pH ~7 versus pH ~5): about 90%
